Laboratory results as given in patent publication US4753953A, “Pyridonecarboxylic acid derivatives and antibacterial pharmaceutical compositions thereof” (priority 1985, dated 1988).
In brackets after ≈: the same amount, converted by molar mass. Read-outs that look alike come from different tables or passages of the source.

How the values were obtained:
[1] = test system: Bacillus subtilis PCI 219; assay: MIC, in vitro antibacterial activity (standard strains); type: cell-based; settings: Bacillus subtilis, PCI219; 10^6 cells/ml; Gram +; read-out: MIC
[2] = test system: S. aureus IID 670 (Terajima); assay: as above; type: cell-based, Staphylococcus aureus; settings: Staphylococcus aureus, IID670; 10^6 cells/ml; Gram +; read-out: MIC
[3] = test system: S. pneumoniae IID 552; assay: as above; type: cell-based; settings: Streptococcus pneumoniae, IID552; 10^6 cells/ml; Gram +; read-out: MIC
[4] = test system: Escherichia coli NIHJ JC-2; assay: as above; type: cell-based; settings: Escherichia coli, NIHJJC2
[5] = test system: E. coli ML 4707; assay: as above; type: cell-based, Escherichia coli; settings: Escherichia coli
[6] = test system: K. pneumoniae 1-220S; assay: as above; type: cell-based, Klebsiella pneumoniae; settings: Klebsiella pneumoniae, 1220S; 10^6 cells/ml; Gram -; read-out: MIC
[7] = test system: P. aeruginosa IFO 12689; assay: as above; type: cell-based, Pseudomonas aeruginosa; settings: Pseudomonas aeruginosa, IFO12689; 10^6 cells/ml; Gram -; read-out: MIC
[8] = test system: P. maltophilia GIFU 2491; assay: as above; type: cell-based; settings: Stenotrophomonas maltophilia, GIFU2491; 10^6 cells/ml; Gram -; read-out: MIC
[9] = test system: Acinetobacter anitratus IID 876; assay: as above; type: cell-based; settings: Acinetobacter calcoaceticus, IID876; 10^6 cells/ml; Gram -; read-out: MIC
[10] = test system: B. vulgatus KYA 29327; assay: as above; type: cell-based; settings: Phocaeicola vulgatus, KYA29327; 10^6 cells/ml; Gram -; read-out: MIC
[11] = test system: F. necrophorum S-45; assay: as above; type: cell-based; settings: Fusobacterium necrophorum, S45; 10^6 cells/ml; Gram -; read-out: MIC
[12] = test system: Propionibacterium acens 11828; assay: as above; type: cell-based; settings: Propionibacterium, 11828; 10^6 cells/ml; Gram +; read-out: MIC
[13] = test system: Peptococcus magnus KY 017; assay: as above; type: cell-based; settings: Finegoldia magna, KY017; 10^6 cells/ml; Gram +; read-out: MIC
[14] = test system: Clostridium difficile I-E; assay: as above; type: cell-based; settings: Clostridioides difficile; 10^6 cells/ml; Gram +
[15] = test system: Pst. micros UPI 5464-1; assay: as above; type: cell-based; settings: Parvimonas micra, UPI54641; 10^6 cells/ml; Gram +; read-out: MIC
[16] = test system: Veillonella parvula KYA 10790; assay: as above; type: cell-based; settings: Veillonella parvula, KYA10790; 10^6 cells/ml; Gram -; read-out: MIC
[17] = test system: MR S. aureus KYB 623; assay: MIC of the infecting strain MR S. aureus KYB 623; type: cell-based; settings: Staphylococcus aureus; Table 3, strain of the mouse infection
[18] = test system: S. pneumoniae S-4288; assay: MIC of the infecting strain S. pneumoniae S-4288; type: cell-based; settings: Streptococcus pneumoniae, S4288; Table 4, strain of the mouse infection
[19] = test system: E. coli ML 4707; assay: Therapeutic efficacy against systemic infections in mice, E. coli ML 4707; settings: Escherichia coli, ML4707, in Mus musculus, po, 1 h
[20] = test system: MR S. aureus KYB 623; assay: Therapeutic efficacy against systemic infections in mice, MR S. aureus KYB 623; settings: Staphylococcus aureus, in Mus musculus, po, 1 h
[21] = test system: S. pneumoniae S-4288; assay: Therapeutic efficacy against systemic infections in mice, S. pneumoniae S-4288; settings: Streptococcus pneumoniae, S4288, in Mus musculus, po, 1 h
[22] = test system: E. limosum KYA 8486; assay: MIC, in vitro antibacterial activity (standard strains); type: cell-based; settings: Eubacterium limosum, KYA8486; 10^6 cells/ml; Gram +; read-out: MIC
[23] = 10^6 cells/ml, Gram -, read-out: MIC
[24] = ML4707, 10^6 cells/ml, Gram -, Table 1, read-out: MIC
[25] = ML4707, Table 2, strain of the mouse infection, read-out: MIC

SMILES | MIC [1] [µg/mL] | MIC [2] [µg/mL] | MIC [3] [µg/mL] | MIC [4, 23] [µg/mL] | MIC [5, 24] [µg/mL] | MIC [6] [µg/mL] | MIC [7] [µg/mL] | MIC [8] [µg/mL] | MIC [9] [µg/mL] | MIC [10] [µg/mL] | MIC [11] [µg/mL] | MIC [12] [µg/mL] | MIC [13] [µg/mL] | MIC [14] [µg/mL] | MIC [15] [µg/mL] | MIC [16] [µg/mL] | MIC [22] [µg/mL] | other results
C[C@H]1CN(c2c(F)cc3c(=O)c(C(=O)O)cn(C4CC4)c3c2Cl)C[C@H]1N (relative stereo) [Example 16, 7-(cis-3-Amino-4-methyl-1-pyrrolidinyl)-8-chloro-1-cyclopropyl-6-fluoro-1,4-dihydro-4-oxo-3-quinolinecarboxylic acid] | 0.0125 (≈ 0.0329 µM) | 0.05 (≈ 0.132 µM) | 0.1 (≈ 0.263 µM) | 0.0063 (≈ 0.0166 µM) | 0.0063 (≈ 0.0166 µM) | 0.05 (≈ 0.132 µM) | 0.39 (≈ 1.03 µM) | 0.05 (≈ 0.132 µM) | 0.025 (≈ 0.0658 µM) | 0.05 (≈ 0.132 µM) | 0.05 (≈ 0.132 µM) | 0.78 (≈ 2.05 µM) | 0.05 (≈ 0.132 µM) | 0.39 | 0.1 (≈ 0.263 µM) | 0.1 (≈ 0.263 µM) | – | MIC [5, 25]: 0.0125 µg/mL (≈ 0.0329 µM); MIC [17]: 0.025 µg/mL; MIC [18]: 0.1 µg/mL; ED50 [19]: 1 mg/kg; ED50 [20]: 3.7 mg/kg; ED50 [21]: 12.1 mg/kg
C[C@@H]1CN(c2c(F)cc3c(=O)c(C(=O)O)cn(C4CC4)c3c2Cl)C[C@H]1N (relative stereo) [Example 17, 7-(trans-3-Amino-4-methyl-1-pyrrolidinyl)-8-chloro-1-cyclopropyl-6-fluoro-1,4-dihydro-4-oxo-3-quinolinecarboxylic acid] | 0.0125 (≈ 0.0329 µM) | 0.05 (≈ 0.132 µM) | – | 0.0063 (≈ 0.0166 µM) | 0.0063 (≈ 0.0166 µM) | 0.0125 (≈ 0.0329 µM) | 0.39 (≈ 1.03 µM) | 0.05 (≈ 0.132 µM) | 0.025 (≈ 0.0658 µM) | 0.05 (≈ 0.132 µM) | 0.05 (≈ 0.132 µM) | 0.78 (≈ 2.05 µM) | 0.05 (≈ 0.132 µM) | 0.39 | 0.05 (≈ 0.132 µM) | 0.05 (≈ 0.132 µM) | – | MIC [17]: 0.0125 µg/mL; ED50 [20]: 2.1 mg/kg
C[C@@H]1CN(c2c(F)cc3c(=O)c(C(=O)O)cn(C4CC4)c3c2Br)C[C@H]1N (relative stereo) [Example 32, 7-(trans-3-Amino-4-methyl-1-pyrrolidinyl)-8-bromo-1-cyclopropyl-6-fluoro-1,4-dihydro-4-oxo-3-quinolinecarboxylic acid] | 0.0125 (≈ 0.0295 µM) | 0.05 (≈ 0.118 µM) | 0.1 (≈ 0.236 µM) | 0.0063 (≈ 0.0148 µM) | 0.0125 (≈ 0.0295 µM) | 0.05 (≈ 0.118 µM) | 0.39 (≈ 0.919 µM) | 0.05 (≈ 0.118 µM) | 0.025 (≈ 0.0589 µM) | 0.1 (≈ 0.236 µM) | 0.1 (≈ 0.236 µM) | 1.56 (≈ 3.68 µM) | 0.05 (≈ 0.118 µM) | 0.78 | 0.1 (≈ 0.236 µM) | 0.1 (≈ 0.236 µM) | 0.1 (≈ 0.236 µM) | –
C[C@H]1CN(c2cc3c(cc2F)c(=O)c(C(=O)O)cn3C2CC2)C[C@H]1N (relative stereo) [Example 33, 7-(cis-3-Amino-4-methyl-1-pyrrolidinyl)-1-cyclopropyl-6-fluoro-1,4-dihydro-4-oxo-3-quinolinecarboxylic acid] | 0.05 (≈ 0.145 µM) | 0.1 (≈ 0.29 µM) | 0.39 (≈ 1.13 µM) | 0.05 (≈ 0.145 µM) | 0.05 (≈ 0.145 µM) | 0.05 (≈ 0.145 µM) | 0.39 (≈ 1.13 µM) | 0.39 (≈ 1.13 µM) | 0.1 (≈ 0.29 µM) | 6.25 (≈ 18.1 µM) | 1.56 (≈ 4.52 µM) | 12.5 (≈ 36.2 µM) | 0.39 (≈ 1.13 µM) | 6.25 | 0.39 (≈ 1.13 µM) | 0.39 (≈ 1.13 µM) | 0.2 (≈ 0.579 µM) | –
CC1CN(c2c(F)cc3c(=O)c(C(=O)O)cn(C4CC4)c3c2F)CC1N.Cl (stereo not shown) [Example 11, 7-(3-Amino-4-methyl-1-pyrrolidinyl)-1-cyclopropyl-6,8-difluoro-1,4-dihydro-4-oxo-3-quinolinecarboxylic acid hydrochloride] | 0.025 | 0.1 | – | – | – | 0.05 | 0.39 | 0.1 | 0.05 | 0.39 | 0.39 | 3.13 | 0.2 | – | 0.39 | 0.39 | 0.78 | MIC [4]: 0.0125 µg/mL; MIC ([5]; ML4707): 0.0125 µg/mL; MIC [5, 25]: 0.025 µg/mL; MIC [18]: 0.2 µg/mL; ED50 [19]: 1 mg/kg; ED50 [21]: 20.7 mg/kg
CNCC1CN(c2c(F)cc3c(=O)c(C(=O)O)cn(C4CC4)c3c2Cl)CC1C (stereo not shown) [Example 12, 8-Chloro-1-cyclopropyl-6-fluoro-1,4-dihydro-7-(3-methylaminomethyl-4-methyl-1-pyrrolidinyl)-4-oxo-3-quinolinecarboxylic acid] | 0.0125 (≈ 0.0306 µM) | 0.0125 (≈ 0.0306 µM) | 0.05 (≈ 0.123 µM) | 0.05 (≈ 0.123 µM) | 0.025 (≈ 0.0613 µM) | 0.1 (≈ 0.245 µM) | 1.56 (≈ 3.82 µM) | 0.2 (≈ 0.49 µM) | 0.2 (≈ 0.49 µM) | 0.2 (≈ 0.49 µM) | 0.2 (≈ 0.49 µM) | 0.78 (≈ 1.91 µM) | 0.05 (≈ 0.123 µM) | 0.2 | 0.39 (≈ 0.956 µM) | 0.39 (≈ 0.956 µM) | 0.39 (≈ 0.956 µM) | –
CNCC1CN(c2c(F)cc3c(=O)c(C(=O)O)cn(C4CC4)c3c2F)CC1C (stereo not shown) [Example 13, 1-Cyclopropyl-6,8-difluoro-1,4-dihydro-7-(3-methylaminomethyl-4-methyl-1-pyrrolidinyl)-4-oxo-3-quinolinecarboxylic acid] | 0.025 (≈ 0.0639 µM) | 0.05 (≈ 0.128 µM) | 0.1 (≈ 0.255 µM) | 0.05 (≈ 0.128 µM) | 0.05 (≈ 0.128 µM) | 0.2 (≈ 0.511 µM) | 3.13 (≈ 8 µM) | 0.39 (≈ 0.996 µM) | 0.1 (≈ 0.255 µM) | 1.56 (≈ 3.99 µM) | 0.39 (≈ 0.996 µM) | 1.56 (≈ 3.99 µM) | ≤ 0.05 | 0.78 | 0.78 (≈ 1.99 µM) | 0.78 (≈ 1.99 µM) | 1.56 (≈ 3.99 µM) | –
CCNCC1CN(c2c(F)cc3c(=O)c(C(=O)O)cn(C4CC4)c3c2Cl)CC1C (stereo not shown) [Example 14, 8-Chloro-1-cyclopropyl-7-(3-ethylaminomethyl-4-methyl-1-pyrrolidinyl)-6-fluoro-1,4-dihydro-4-oxo-3-quinolinecarboxylic acid] | 0.0125 (≈ 0.0296 µM) | 0.0125 (≈ 0.0296 µM) | 0.05 (≈ 0.119 µM) | 0.025 (≈ 0.0593 µM) | 0.05 (≈ 0.119 µM) | 0.2 (≈ 0.474 µM) | 3.13 (≈ 7.42 µM) | 0.39 (≈ 0.924 µM) | 0.1 (≈ 0.237 µM) | ≤ 0.05 | 0.1 (≈ 0.237 µM) | 1.56 (≈ 3.7 µM) | ≤ 0.05 | 0.1 | 0.39 (≈ 0.924 µM) | 0.39 (≈ 0.924 µM) | 0.78 (≈ 1.85 µM) | –
CCNCC1CN(c2c(F)cc3c(=O)c(C(=O)O)cn(C4CC4)c3c2F)CC1C (stereo not shown) [Example 15, 1-Cyclopropyl-7-(3-ethylaminomethyl-4-methyl-1-pyrrolidinyl)-6,8-difluoro-1,4-dihydro-4-oxo-3-quinolinecarboxylic acid] | 0.025 (≈ 0.0617 µM) | 0.05 (≈ 0.123 µM) | 0.1 (≈ 0.247 µM) | 0.05 (≈ 0.123 µM) | 0.05 (≈ 0.123 µM) | 0.2 (≈ 0.493 µM) | 3.13 (≈ 7.72 µM) | 0.39 (≈ 0.962 µM) | 0.1 (≈ 0.247 µM) | 0.78 (≈ 1.92 µM) | 0.39 (≈ 0.962 µM) | 3.13 (≈ 7.72 µM) | ≤ 0.05 | 0.78 | 0.78 (≈ 1.92 µM) | 0.78 (≈ 1.92 µM) | 1.56 (≈ 3.85 µM) | –
